In US10487092B2, “Pyrazolopyridinamines as MKNK1 and MKNK2 inhibitors” (BAYER PHARMA AKTIENGESELLSCHAFT, priority 2014, dated 2019):
pIC50: −log10 of the molar value. Blank lines part the entries; values can stand above or below the compound they belong to.

Tests used:
[1] = test system: secretion of TNF-α in human PBMCs; test: In vitro IL-1β-induced cytokine (TNF-α) secretion of human PBMCs; type: cell-based; conditions: PBMC; human PBMCs stimulated with 20 ng/ml IL-1β for 24 hours
Source text: In Vitro IL-1β (Interleukin-1 beta, IL-1b)-Induced Cytokine Secretion of Human PBMCs (Peripheral Blood Mononuclear Cells)
The effect of the chemical compounds on the induced cytokine secretion of human PBMCs has been investigated. Here, the cytokine secretion has been induced by IL-1β which binding to its receptors leads to the activation of the MKNK signaling pathway.
Human PBMCs have been isolated from anti-coagulated human whole blood donated from healthy volunteers by pre-filling Leucosep tubes with ficoll-paque (15 ml, Biochrom, order ID: L6115) and adding 20 ml whole blood. After centrifugation of the blood at 800 g for 15 min at room temperature (RT) plasma including thrombocytes has been discarded. PBMCs were transferred to a new falcon tube, washed with PBS (phosphate-buffered saline) at 250 g for 10 min at RT and resuspended in complete medium [RPMI 1640, without L-glutamine (PAA, order ID: E15-039), 10% FCS; 50 U/ml Penicillin, 50 μg/ml Streptomycin (PAA, order ID: P11-010) and 1% L-glutamine (Sigma, order ID. G7513)]. The assay was performed in a 96-well plate at a cell density of 2.5×10^5 cells/well as triplicates. The compounds were serially diluted in DMSO and added to the PBMCs at a range of 3×10^−9 M to 1×10^−5M with a final concentration of 0.4% DMSO, respectively. Treatment of PBMCs with 0.4% DMSO was used as control. After 30 min of incubation, PBMCs were stimulated with 20 ng/ml IL-1β (R&D, order ID: 201-LB CF) for 24 hours. Cell viability was measured using the CellTiter-Glo Luminescent Assay (Promega, order ID: G7571) following the manufacturers protocol. The amount of secreted TNF-α (tumor necrosis factor-alpha) in the supernatant was determined using the Human Prolnflammatory 9-Plex (MSD, order ID: K15007B) according to manufacturer's instruction. The inhibitory activity was determined as the relation to the control in percent. IC50 values were calculated using the 4-parameter logistic model.

human full-length MKNK1 = human full-length MKNK1 (Homo sapiens (Human), UniProt Q9BUB5, T344D); test: MKNK1 kinase high ATP assay (TR-FRET); type: biochemical; conditions: high ATP (2 mM), 15 min preincubation with enzyme; read-out: MKNK1 IC50
In short: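 GST-tagged full-length MKNK1 (aa 1–424, T344D; insect-cell expressed) preincubated 15 min with compound, then reacted 30 min at 22 °C with 2 mM ATP and 0.06 μM biotinylated peptide (final) in HEPES pH 7.5 buffer. Phosphopeptide detected by TR-FRET 665/620 ratio, normalized to no-inhibitor and no-enzyme controls.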

Sequence of human full-length MKNK1 (Q9BUB5 other isoform, or with tags, fused parts or gaps T344D): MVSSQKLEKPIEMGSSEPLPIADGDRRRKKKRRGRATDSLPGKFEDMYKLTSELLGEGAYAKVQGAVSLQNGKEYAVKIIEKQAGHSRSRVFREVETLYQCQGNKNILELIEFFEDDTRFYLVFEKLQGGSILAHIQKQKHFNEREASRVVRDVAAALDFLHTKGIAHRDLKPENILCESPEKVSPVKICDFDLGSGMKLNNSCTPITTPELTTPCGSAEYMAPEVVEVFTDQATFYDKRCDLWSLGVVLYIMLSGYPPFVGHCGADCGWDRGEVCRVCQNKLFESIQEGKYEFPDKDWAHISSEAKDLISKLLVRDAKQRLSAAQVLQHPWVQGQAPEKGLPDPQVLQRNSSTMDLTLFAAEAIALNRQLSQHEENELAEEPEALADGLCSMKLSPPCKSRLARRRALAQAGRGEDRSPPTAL

Compound: COc1cn2nccc2cc1Nc1ncnc2sc3c(c12)CC[C@H](C(=O)N(C)C)C3 [Example 15, (7S)-4-[(6-Methoxypyrazolo[1,5-a]pyridin-5-yl)amino]-N,N-dimethyl-5,6,7,8-tetrahydro[1]benzothieno[2,3-d]pyrimidine-7-carboxamide]
pIC50 [1]: 7.00 to 8.00 | pIC50 (human full-length MKNK1): 8.40

Compound: CN(C)CCCN(C)C(=O)[C@H]1CCc2c(sc3ncnc(Nc4ccn5nccc5c4)c23)C1 [Example 27, (7S)—N-[3-(Dimethylamino)propyl]-N-methyl-4-(pyrazolo[1,5-a]pyridin-5-ylamino)-5,6,7,8-tetrahydro[1]benzothieno[2,3-d]pyrimidine-7-carboxamide]
pIC50 [1]: ≤ 7.00 | pIC50 (human full-length MKNK1): 7.89

Compound: CN(C)C1CCN(C(=O)[C@H]2CCc3c(sc4ncnc(Nc5ccn6nccc6c5)c34)C2)CC1 [Example 32, [4-(Dimethylamino)piperidin-1-yl][(7S)-4-(pyrazolo[1,5-a]pyridin-5-ylamino)-5,6,7,8-tetrahydro[1]benzothieno[2,3-d]pyrimidin-7-yl]methanone]
pIC50 [1]: 7.00 to 8.00 | pIC50 (human full-length MKNK1): 7.60

pIC50 (human full-length MKNK1): 7.39
Compound: CN(CCN)C(=O)[C@H]1CCc2c(sc3ncnc(Nc4ccn5nccc5c4)c23)C1 [Example 39, (7S)—N-(2-Aminoethyl)-N-methyl-4-(pyrazolo[1,5-a]pyridin-5-ylamino)-5,6,7,8-tetrahydro[1]benzothieno[2,3-d]pyrimidine-7-carboxamide]
pIC50 [1]: ≤ 7.00

Compound: CN(C)CCCN(C)C(=O)[C@H]1CCc2c(sc3ncnc(Nc4cc5ccnn5cc4Cl)c23)C1 [Example 51, (7S)-4-[(6-Chloropyrazolo[1,5-a]pyridin-5-yl)amino]-N-[3-(dimethylamino)propyl]-N-methyl-5,6,7,8-tetrahydro[1]benzothieno[2,3-d]pyrimidine-7-carboxamide]
pIC50 [1]: 7.00 to 8.00 | pIC50 (human full-length MKNK1): 8.30

Compound: CN(C)CCN(C)C(=O)[C@H]1CCc2c(sc3ncnc(Nc4cc5ccnn5cc4Cl)c23)C1 [Example 53, (7S)-4-[(6-Chloropyrazolo[1,5-a]pyridin-5-yl)amino]-N-[2-(dimethylamino)ethyl]-N-methyl-5,6,7,8-tetrahydro[1]benzothieno[2,3-d]pyrimidine-7-carboxamide]
pIC50 [1]: ≤ 7.00 | pIC50 (human full-length MKNK1): 8.05

Compound: CN(C)C1CN(C(=O)[C@H]2CCc3c(sc4ncnc(Nc5cc6ccnn6cc5Cl)c34)C2)C1 [Example 54, (7S)-4-[(6-Chloropyrazolo[1,5-a]pyridin-5-yl)amino]-5,6,7,8-tetrahydro[1]benzothieno[2,3-d]pyrimidin-7-yl[3-(dimethylamino)azetidin-1-yl]methanone]
pIC50 [1]: 7.00 to 8.00 | pIC50 (human full-length MKNK1): 7.96

Compound: CN1CCN(C(=O)[C@H]2CCc3c(sc4ncnc(Nc5cc6ccnn6cc5Cl)c34)C2)CC1 [Example 65, (7S)-4-[(6-Chloropyrazolo[1,5-a]pyridin-5-yl)amino]-5,6,7,8-tetrahydro[1]benzothieno[2,3-d]pyrimidin-7-yl(4-methylpiperazin-1-yl)methanone]
pIC50 [1]: 7.00 to 8.00 | pIC50 (human full-length MKNK1): 8.30

pIC50 (human full-length MKNK1): 8.40
Compound: COc1cn2nccc2cc1Nc1ncnc2sc3c(c12)CC[C@H](C(=O)NC(C)C)C3 [Example 85, (7S)-4-[(6-Methoxypyrazolo[1,5-a]pyridin-5-yl)amino]-N-(propan-2-yl)-5,6,7,8-tetrahydro[1]benzothieno[2,3-d]pyrimidine-7-carboxamide]
pIC50 [1]: 8.00 to 9.00

Compound: COc1cn2nccc2cc1Nc1ncnc2sc3c(c12)CC[C@H](C(=O)N(C)CC(F)F)C3 [Example 95, (7S)—N-(2,2-Difluoroethyl)-4-[(6-methoxypyrazolo[1,5-a]pyridin-5-yl)amino]-N-methyl-5,6,7,8-tetrahydro[1]benzothieno[2,3-d]pyrimidine-7-carboxamide]
pIC50 [1]: 7.00 to 8.00 | pIC50 (human full-length MKNK1): 8.70

Compound: COc1cn2nccc2cc1Nc1ncnc2sc3c(c12)CC[C@H](C(=O)N1CC(C#N)C1)C3 [Example 98, 1-((7S)-4-[(6-Methoxypyrazolo[1,5-a]pyridin-5-yl)amino]-5,6,7,8-tetrahydro[1]benzothieno[2,3-d]pyrimidin-7-ylcarbonyl)azetidine-3-carbonitrile]
pIC50 [1]: ≤ 7.00 | pIC50 (human full-length MKNK1): 9.00

Compound: COc1cn2nccc2cc1Nc1ncnc2sc3c(c12)CC[C@H](C(=O)N1CC(C)(O)C1)C3 [Example 100, (3-Hydroxy-3-methylazetidin-1-yl)(7S)-4-[(6-methoxypyrazolo[1,5-a]pyridin-5-yl)amino]-5,6,7,8-tetrahydro[1]benzothieno[2,3-d]pyrimidin-7-ylmethanone]
pIC50 [1]: 8.00 to 9.00 | pIC50 (human full-length MKNK1): > 9.00

Compound: CCN(CCN(C)C)C(=O)[C@H]1CCc2c(sc3ncnc(Nc4cc5ccnn5cc4OC)c23)C1 [Example 115, (7S)—N-[2-(Dimethylamino)ethyl]-N-ethyl-4-[(6-methoxypyrazolo[1,5-a]pyridin-5-yl)amino]-5,6,7,8-tetrahydro[1]benzothieno[2,3-d]pyrimidine-7-carboxamide]
pIC50 (human full-length MKNK1): 9.00

Compound: CCN(CCO)C(=O)[C@H]1CCc2c(sc3ncnc(Nc4cc5ccnn5cc4OC)c23)C1 [Example 117, (7S)—N-Ethyl-N-(2-hydroxyethyl)-4-[(6-methoxypyrazolo[1,5-a]pyridin-5-yl)amino]-5,6,7,8-tetrahydro[1]benzothieno[2,3-d]pyrimidine-7-carboxamide]
pIC50 (human full-length MKNK1): 9.00

Compound: CCN(CCOC)C(=O)[C@H]1CCc2c(sc3ncnc(Nc4cc5ccnn5cc4OC)c23)C1 [Example 118, (7S)—N-Ethyl-N-(2-methoxyethyl)-4-[(6-methoxypyrazolo[1,5-a]pyridin-5-yl)amino]-5,6,7,8-tetrahydro[1]benzothieno[2,3-d]pyrimidine-7-carboxamide]
pIC50 (human full-length MKNK1): 9.00

Compound: COCCN(CCOC)C(=O)[C@H]1CCc2c(sc3ncnc(Nc4cc5ccnn5cc4OC)c23)C1 [Example 119, (7S)—N,N-Bis(2-methoxyethyl)-4-[(6-methoxypyrazolo[1,5-a]pyridin-5-yl)amino]-5,6,7,8-tetrahydro[1]benzothieno[2,3-d]pyrimidine-7-carboxamide]
pIC50 (human full-length MKNK1): > 9.00

Compound: COc1cn2nccc2cc1Nc1ncnc2sc3c(c12)CC[C@H](C(=O)N(C)C(C)(C)C)C3 [Example 120, (7S)—N-tert-Butyl-4-[(6-methoxypyrazolo[1,5-a]pyridin-5-yl)amino]-N-methyl-5,6,7,8-tetrahydro[1]benzothieno[2,3-d]pyrimidine-7-carboxamide]
pIC50 (human full-length MKNK1): 8.30

Compound: COc1cn2nccc2cc1Nc1ncnc2sc3c(c12)CC[C@H](C(=O)N1C[C@@H]2C[C@H]1CN2C)C3 [Example 121, (7S)-4-[(6-Methoxypyrazolo[1,5-a]pyridin-5-yl)amino]-5,6,7,8-tetrahydro[1]benzothieno[2,3-d]pyrimidin-7-yl[(1S,4S)-5-methyl-2,5-diazabicyclo[2.2.1]hept-2-yl]methanone]
pIC50 (human full-length MKNK1): 9.00

Compound: COc1cn2nccc2cc1Nc1ncnc2sc3c(c12)CC[C@H](C(=O)N1C[C@H]2C[C@@H]1CN2C)C3 [Example 122, (7S)-4-[(6-Methoxypyrazolo[1,5-a]pyridin-5-yl)amino]-5,6,7,8-tetrahydro[1]benzothieno[2,3-d]pyrimidin-7-yl[(1R,4R)-5-methyl-2,5-diazabicyclo[2.2.1]hept-2-yl]methanone]
pIC50 (human full-length MKNK1): > 9.00

Compound: COc1cn2nccc2cc1Nc1ncnc2sc3c(c12)CC[C@H](C(=O)N1C[C@@H]2C[C@H]1CO2)C3 [Example 123, (7S)-4-[(6-Methoxypyrazolo[1,5-a]pyridin-5-yl)amino]-5,6,7,8-tetrahydro[1]benzothieno[2,3-d]pyrimidin-7-yl[(1S,4S)-2-oxa-5-azabicyclo[2.2.1]hept-5-yl]methanone]
pIC50 (human full-length MKNK1): 8.70

Compound: COc1cn2nccc2cc1Nc1ncnc2sc3c(c12)CC[C@H](C(=O)N1C[C@H]2C[C@@H]1CO2)C3 [Example 124, (7S)-4-[(6-Methoxypyrazolo[1,5-a]pyridin-5-yl)amino]-5,6,7,8-tetrahydro[1]benzothieno[2,3-d]pyrimidin-7-yl[(1R,4R)-2-oxa-5-azabicyclo[2.2.1]hept-5-yl]methanone]
pIC50 (human full-length MKNK1): 9.00

Compound: COc1cn2nccc2cc1Nc1ncnc2sc3c(c12)CC[C@H](C(=O)N1CCOC[C@H]1C)C3 [Example 126, (7S)-4-[(6-Methoxypyrazolo[1,5-a]pyridin-5-yl)amino]-5,6,7,8-tetrahydro[1]benzothieno[2,3-d]pyrimidin-7-yl[(3R)-3-methylmorpholin-4-yl]methanone]
pIC50 (human full-length MKNK1): 9.00

pIC50 (human full-length MKNK1): 8.22
Compound: (7S)-4-[(6-Chloropyrazolo[1,5-a]pyridin-5-yl)amino]-5,6,7,8-tetrahydro[1]benzothieno[2,3-d]pyrimidin-7-yl(4-[2-dimethylamino)ethyl](methyl)aminopiperidin-1-yl)methanone [Example 62]
